Measured values taken from ChEMBL document CHEMBL5528016, “Design, synthesis and evaluation of novel deferasirox derivatives with high antifungal potency in vitro and in vivo” (Eur J Med Chem, 2024).
In brackets after ≈: the same amount, converted by molar mass. Activity calls are given as the source filed them. The calls are words filed in the database; no cut-off is given here.

Columns and labels:
Nakaseomyces glabratus [1] = assay: Antifungal activity against Candida glabrata 537 assessed as reduction in fungal growth incubated for 72 hrs by broth microdilution method; assay type: functional
Nakaseomyces glabratus [2] = assay: Antifungal activity against Candida glabrata 337 assessed as reduction in fungal growth incubated for 48 hrs by broth microdilution method; assay type: functional
Erythrocyte = assay: Hemolytic activity in rabbit Red blood cell at 64 ug/ml; assay type: toxicity, cell-based, Oryctolagus cuniculus; details: dose 64 µg/ml
Candida albicans = assay: Antifungal activity against Candida albicans SC5314 assessed as reduction in fungal growth incubated for 72 hrs by broth microdilution method; assay type: functional
[3] = Antifungal activity against Cryptococcus gattii VGI WM179 assessed as reduction in fungal growth incubated for 72 hrs by broth microdilution method; assay type: functional
[4] = Antifungal activity against Cryptococcus gattii VGI E566 assessed as reduction in fungal growth incubated for 72 hrs by broth microdilution method; assay type: functional
Candida parapsilosis = assay: Antifungal activity against Candida parapsilosis ATCC 22019 assessed as reduction in fungal growth incubated for 72 hrs by broth microdilution method; assay type: functional; details: Lodderomyces parapsilosis
Cryptococcus neoformans [5] = assay: Antifungal activity against Cryptococcus neoformans HN1 assessed as reduction in fungal growth incubated for 72 hrs by broth microdilution method; assay type: functional
[6] = Antifungal activity against Cryptococcus gattii VGI WM178 assessed as reduction in fungal growth incubated for 72 hrs by broth microdilution method; assay type: functional
[7] = Antifungal activity against Cryptococcus gattii VGI SCZ20024 assessed as reduction in fungal growth incubated for 72 hrs by broth microdilution method; assay type: functional
[Candida] auris = Antifungal activity against Candida auris D12 assessed as reduction in fungal growth incubated for 72 hrs by broth microdilution method; assay type: functional; details: Candidozyma auris
Cryptococcus neoformans [8] = assay: Antifungal activity against Cryptococcus neoformans 444 assessed as reduction in fungal growth incubated for 72 hrs by broth microdilution method; assay type: functional
Pichia kudriavzevii = assay: Antifungal activity against Pichia kudriavzevii 4946 assessed as reduction in fungal growth incubated for 72 hrs by broth microdilution method; assay type: functional
Nakaseomyces glabratus [9] = assay: Antifungal activity against Candida glabrata Y10-15 assessed as reduction in fungal growth incubated for 48 hrs by broth microdilution method; assay type: functional
Nakaseomyces glabratus [10] = assay: Antifungal activity against Candida glabrata YC1-34 assessed as reduction in fungal growth incubated for 48 hrs by broth microdilution method; assay type: functional
[11] = Antifungal activity against Cryptococcus gattii VGI SCZ20031 assessed as reduction in fungal growth incubated for 72 hrs by broth microdilution method; assay type: functional
Cryptococcus neoformans [12] = assay: Antifungal activity against Cryptococcus neoformans BJ3 assessed as reduction in fungal growth incubated for 72 hrs by broth microdilution method; assay type: functional
Candida tropicalis = assay: Antifungal activity against Candida tropicalis 2718 assessed as reduction in fungal growth incubated for 72 hrs by broth microdilution method; assay type: functional
Cryptococcus neoformans [13] = assay: Antifungal activity against Cryptococcus neoformans 20 assessed as reduction in fungal growth incubated for 72 hrs by broth microdilution method; assay type: functional
Nakaseomyces glabratus [14] = assay: Antifungal activity against Candida glabrata 203 assessed as reduction in fungal growth incubated for 48 hrs by broth microdilution method; assay type: functional
Cryptococcus neoformans [15] = assay: Antifungal activity against Cryptococcus neoformans HN15 assessed as reduction in fungal growth incubated for 72 hrs by broth microdilution method; assay type: functional
Caco-2 = assay: Cytotoxicity against human Caco-2 cells assessed as reduction in cell viability at 0.25 to 64 ug/ml incubated for 2 hrs by CCK-8 assay; assay type: toxicity, cell-based; details: caco-2, 2 h, dose 0.25-64 µg/ml
[16] = Hemolytic activity in rabbit Red blood cell at 2 ug/ml relative to control; assay type: toxicity, cell-based, Oryctolagus cuniculus, Erythrocyte; details: red blood cells, at 2 µg/mL, read-out: Activity
[17] = Hemolytic activity in rabbit Red blood cell at 64 ug/ml relative to control; assay type: toxicity, cell-based, Oryctolagus cuniculus, Erythrocyte; details: red blood cells, at 64 µg/mL, read-out: Activity
HUVEC = assay: Cytotoxicity against HUVEC cells assessed as reduction in cell viability at 0.25 to 64 ug/ml incubated for 2 hrs by CCK-8 assay; assay type: toxicity, cell-based; details: human, dose 0.25-64 µg/ml
[18] = Toxicity against ICR mouse assessed as increase in monocytes at 50 mg/kg, ip administered at 24 hrs interval for 7 days by hematoxylin and eosin staining based analysis; assay type: organism-based; details: in vivo, 168 h, time 7 day
[19] = Toxicity against ICR mouse assessed as inflammatory cell infiltration at 50 mg/kg, ip administered at 24 hrs interval for 7 days by hematoxylin and eosin staining based analysis; assay type: organism-based; details: in vivo, 168 h, time 7 day
[20] = Metabolic stability in mouse liver microsomes assessed as half life; assay type: ADME, Microsome
[21] = Metabolic stability in mouse liver microsomes assessed as intrinsic clearance; assay type: ADME, Microsome; details: read-out: CLH
[22] = Toxicity against ICR mouse assessed as enlargement of cytoplasm in hepatocytes at 50 mg/kg, ip administered at 24 hrs interval for 7 days by hematoxylin and eosin staining based analysis; assay type: organism-based; details: in vivo
[23] = Toxicity against ICR mouse assessed as reduction in lipid droplet at 50 mg/kg, ip administered at 24 hrs interval for 7 days by hematoxylin and eosin staining based analysis; assay type: organism-based; details: in vivo, 168 h, time 7 day
[24] = Toxicity against ICR mouse assessed as hypertrophy at 50 mg/kg, ip administered at 24 hrs interval for 7 days by hematoxylin and eosin staining based analysis; assay type: organism-based; details: in vivo, 168 h, time 7 day
[25] = Metabolic stability in mouse liver microsomes assessed as elimination rate constant; assay type: ADME, Microsome
[26] = Toxicity against ICR mouse assessed as glomerular enlargement at 50 mg/kg, ip administered at 24 hrs interval for 7 days by hematoxylin and eosin staining based analysis; assay type: organism-based; details: in vivo, 168 h, time 7 day
Cryptococcus neoformans [27] = assay: Antifungal activity against Cryptococcus neoformans H99 assessed as reduction in fungal growth incubated for 72 hrs by broth microdilution method; assay type: functional
[28] = Toxicity against ICR mouse assessed as enlargement of nucleus in hepatocytes at 50 mg/kg, ip administered at 24 hrs interval for 7 days by hematoxylin and eosin staining based analysis; assay type: organism-based; details: in vivo, 168 h, time 7 day
Cryptococcus neoformans [29] = assay: Antifungal activity against Cryptococcus neoformans H99 infected in C57BL/6J mouse assessed as reduction in fungal burden in brain at 10 mg/kg, ip; assay type: functional, organism-based
Cryptococcus neoformans [30] = assay: Antifungal activity against Cryptococcus neoformans H99 infected in C57BL/6J mouse assessed as reduction in fungal burden in lung at 10 mg/kg, ip; assay type: functional, organism-based
[31] = Nephrotoxicity in ICR mouse at 50 mg/kg, ip administered at 24 hrs interval for 7 days by hematoxylin and eosin staining based analysis; assay type: toxicity, organism-based; details: in vivo, 168 h, time 7 day
Cryptococcus neoformans [32] = assay: Antifungal activity against Cryptococcus neoformans H99 infected in C57BL/6J mouse assessed as reduction in fungal burden in brain at 2 mg/kg, ip; assay type: functional, organism-based
Cryptococcus neoformans [33] = assay: Antifungal activity against Cryptococcus neoformans assessed as increase in MIC incubated for 72 hrs in presence of FeCl3 by broth microdilution method; assay type: functional, organism-based
[34] = Toxicity against ICR mouse assessed as reduction in lipid droplet at 20 mg/kg, ip administered at 24 hrs interval for 7 days by hematoxylin and eosin staining based analysis; assay type: organism-based; details: in vivo, 168 h, time 7 day
Cryptococcus neoformans [35] = assay: Antifungal activity against Cryptococcus neoformans H99 infected in C57BL/6J mouse assessed as reduction in fungal burden in lung at 2 mg/kg, ip; assay type: functional, organism-based

Row | SMILES | MIC (Nakaseomyces glabratus [1]) | MIC (Nakaseomyces glabratus [2]) | MIC (Candida albicans) | MIC [3] | MIC [4] | MIC (Candida parapsilosis) | MIC (Cryptococcus neoformans [5]) | MIC [6] | MIC [7] | MIC ([Candida] auris) | MIC (Cryptococcus neoformans [8]) | MIC (Pichia kudriavzevii) | MIC (Nakaseomyces glabratus [9]) | MIC (Nakaseomyces glabratus [10]) | MIC [11] | MIC (Cryptococcus neoformans [12]) | MIC (Candida tropicalis) | MIC (Cryptococcus neoformans [13]) | MIC (Nakaseomyces glabratus [14]) | MIC (Cryptococcus neoformans [15]) | other results
1 | OC(Cn1cncn1)(Cn1cncn1)c1ccc(F)cc1F [FLUCONAZOLE] | 0.25 µg/mL (≈ 0.816 µM) | 2 µg/mL (≈ 6.53 µM) | 0.125 µg/mL (≈ 0.408 µM) | 16 µg/mL (≈ 52.2 µM) | 32 µg/mL (≈ 104 µM) | 1 µg/mL (≈ 3.27 µM) | 2 µg/mL (≈ 6.53 µM) | 16 µg/mL (≈ 52.2 µM) | 4 µg/mL (≈ 13.1 µM) | > 64 µg/mL | 16 µg/mL (≈ 52.2 µM) | 16 µg/mL (≈ 52.2 µM) | 4 µg/mL (≈ 13.1 µM) | 2 µg/mL (≈ 6.53 µM) | 4 µg/mL (≈ 13.1 µM) | 8 µg/mL (≈ 26.1 µM) | < 0.125 µg/mL | 8 µg/mL (≈ 26.1 µM) | > 64 µg/mL | 4 µg/mL (≈ 13.1 µM) | Activity (Erythrocyte): Non-Toxic
2 | C[C@@H]1[C@H](O)[C@@H](C)/C=C/C=C/C=C/C=C/C=C/C=C/C=C/[C@H](O[C@@H]2O[C@H](C)[C@@H](O)[C@H](N)[C@@H]2O)C[C@@H]2O[C@](O)(C[C@@H](O)C[C@@H](O)[C@H](O)CC[C@@H](O)C[C@@H](O)CC(=O)O[C@H]1C)C[C@H](O)[C@H]2C(=O)O [AMPHOTERICIN B] | < 0.125 µg/mL | 0.5 µg/mL (≈ 0.541 µM) | 1 µg/mL (≈ 1.08 µM) | 1 µg/mL (≈ 1.08 µM) | 4 µg/mL (≈ 4.33 µM) | 0.5 µg/mL (≈ 0.541 µM) | 1 µg/mL (≈ 1.08 µM) | 1 µg/mL (≈ 1.08 µM) | 1 µg/mL (≈ 1.08 µM) | 8 µg/mL (≈ 8.66 µM) | 2 µg/mL (≈ 2.16 µM) | – | 2 µg/mL (≈ 2.16 µM) | 1 µg/mL (≈ 1.08 µM) | 1 µg/mL (≈ 1.08 µM) | 2 µg/mL (≈ 2.16 µM) | 1 µg/mL (≈ 1.08 µM) | – | 16 µg/mL (≈ 17.3 µM) | 8 µg/mL (≈ 8.66 µM) | Activity (Caco-2): Non-Toxic; hemolysis at 2 ug/ml [16]: > 10%; hemolysis at 64 ug/ml [17]: 100%; Activity (HUVEC): Non-Toxic
3 | O=C(O)c1ccc(-n2nc(-c3ccccc3O)nc2-c2ccccc2O)cc1 [DEFERASIROX] | 0.5 µg/mL (≈ 1.34 µM) | 0.5 µg/mL (≈ 1.34 µM) | > 64 µg/mL | 8 µg/mL (≈ 21.4 µM) | 8 µg/mL (≈ 21.4 µM) | 32 µg/mL (≈ 85.7 µM) | 4 µg/mL (≈ 10.7 µM) | 8 µg/mL (≈ 21.4 µM) | 2 µg/mL (≈ 5.36 µM) | > 64 µg/mL | 8 µg/mL (≈ 21.4 µM) | 2 µg/mL (≈ 5.36 µM) | 0.5 µg/mL (≈ 1.34 µM) | 0.25 µg/mL (≈ 0.67 µM) | 2 µg/mL (≈ 5.36 µM) | 8 µg/mL (≈ 21.4 µM) | 8 µg/mL (≈ 21.4 µM) | 2 µg/mL (≈ 5.36 µM) | 2 µg/mL (≈ 5.36 µM) | 2 µg/mL (≈ 5.36 µM) | Activity [18]: Toxic; Activity [19]: Toxic; half-life [20]: 3.9 h; microsomal CLint [21]: 5.94 µL/min/mg; Activity [22]: Toxic; Activity [23]: Toxic; Activity [24]: Toxic; k el [25]: 5e-05 s⁻¹; Activity [26]: Toxic; MIC (Cryptococcus neoformans [27]): 2 µg/mL (≈ 5.36 µM); Activity [28]: Toxic
4 | O=C(NC1CCS(=O)(=O)C1)c1ccc(-n2nc(-c3ccccc3O)nc2-c2ccccc2O)cc1 (configuration not stated) | < 0.125 µg/mL | < 0.125 µg/mL | 4 µg/mL (≈ 8.15 µM) | 0.5 µg/mL (≈ 1.02 µM) | 0.5 µg/mL (≈ 1.02 µM) | 64 µg/mL (≈ 130 µM) | < 0.125 µg/mL | 0.25 µg/mL (≈ 0.51 µM) | 0.25 µg/mL (≈ 0.51 µM) | > 64 µg/mL | 1 µg/mL (≈ 2.04 µM) | 0.25 µg/mL (≈ 0.51 µM) | < 0.125 µg/mL | < 0.125 µg/mL | < 0.125 µg/mL | 0.5 µg/mL (≈ 1.02 µM) | 2 µg/mL (≈ 4.08 µM) | < 0.125 µg/mL | < 0.125 µg/mL | < 0.125 µg/mL | Activity (Cryptococcus neoformans [29]): Active; Activity (Erythrocyte): Non-Toxic; Activity (Caco-2): Non-Toxic; Activity (Cryptococcus neoformans [30]): Active; Activity [31]: Toxic; Activity (Cryptococcus neoformans [32]): inactive; Activity (Cryptococcus neoformans [33]): inactive; half-life [20]: 2.13 h; Activity [34]: Toxic; microsomal CLint [21]: 10.9 µL/min/mg; Activity [22]: Toxic; Activity [23]: Toxic; Activity [24]: Toxic; k el [25]: 8.33e-05 s⁻¹; MIC (Cryptococcus neoformans [27]): 0.25 µg/mL (≈ 0.51 µM); Activity [28]: Toxic; Activity (HUVEC): Non-Toxic; Activity (Cryptococcus neoformans [35]): inactive
